Data on three molecules can be found in article PMC8290022, “Electrophysiological characterization of a diverse group of sugar transporters from Trichoderma reesei” (Scientific Reports, 2021).

In general, Km refers to the substrate concentration at which the rate is half of its maximum.

For this test, the target named is T1, STR3 (Trire2_62380) (Trichoderma reesei, UniProt G0RKF0).
T1 construct: gene TRIREDRAFT_62380
T1 sequence (G0RKF0 entry or part of it): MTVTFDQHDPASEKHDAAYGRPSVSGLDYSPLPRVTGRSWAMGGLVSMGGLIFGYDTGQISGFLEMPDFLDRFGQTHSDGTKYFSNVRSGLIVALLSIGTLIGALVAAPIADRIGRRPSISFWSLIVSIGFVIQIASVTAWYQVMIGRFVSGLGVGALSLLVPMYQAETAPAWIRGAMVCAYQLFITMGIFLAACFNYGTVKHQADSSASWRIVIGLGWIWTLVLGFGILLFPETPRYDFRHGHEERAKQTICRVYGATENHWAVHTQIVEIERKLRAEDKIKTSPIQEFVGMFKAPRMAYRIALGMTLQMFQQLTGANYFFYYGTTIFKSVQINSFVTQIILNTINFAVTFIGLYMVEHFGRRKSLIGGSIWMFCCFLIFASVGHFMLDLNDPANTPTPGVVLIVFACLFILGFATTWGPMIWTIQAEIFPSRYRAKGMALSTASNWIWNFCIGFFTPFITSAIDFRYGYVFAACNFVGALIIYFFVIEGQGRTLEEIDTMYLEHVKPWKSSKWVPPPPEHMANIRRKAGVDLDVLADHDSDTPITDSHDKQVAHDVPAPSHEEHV
Briefly: two-electrode voltage clamp in Xenopus oocytes, transport current. The note with it: pH 5.5, -50 mV, H+ symport. The format is cell-based.
With `OC[C@H]1OC(O)[C@H](O)[C@@H](O)[C@H]1O` (stereo partly drawn) [D-galactose], the Michaelis constant (Km) came out at 1110 ± 490 µM.

Consider `OC[C@H]1OC(O)[C@H](O)[C@@H](O)[C@@H]1O` (stereo partly drawn) [D-glucose], for which the Michaelis-Menten constant (Km) was found to be 57.9 ± 17.7 µM.

As for `OC[C@H]1OC(O)[C@@H](O)[C@@H](O)[C@@H]1O` (stereo partly drawn) [D-mannose], the Km worked out at 186 ± 18.9 µM.
